# In publication PMC4589873, “A pain-inducing centipede toxin targets the heat activation machinery of nociceptor TRPV1” (Nature Communications, 2015):
# “Also recorded” adds a separate entry of the source. Where a SMILES comes first, the peptide text is derived from it. Bridges are numbered along the chain shown (N, C = ends).
# Key:
# [1] = system: dorsal root ganglion (DRG) neurons; assay: Calcium imaging of DRG neurons (Fluo-4); format: cell-based, mouse; conditions: RhTx 10 μM, capsaicin 10 μM
# Protocol: (§1) Mouse DRG neurons were acutely dissociated and maintained in a short-term primary culture according to procedures as previous descripted. DRG neurons or HEK-293T cells were loaded with Fluo-4 AM in 2 mM Ca^2+ Ringer’s solution (140 mM NaCl, 5 mM KCl, 2 mM MgCl2, 10 mM glucose, 2 mM CaCl2 and 10 mM HEPES, pH 7.4). Fluorescence images of DRG neurons and HEK-293T cells were acquired with an Olympus IX81 microscope with Hamamatsu C4742 charge-coupled device camera controlled by the MetaFluor Software (Molecular Devices). Fluo-4 was excited by a mercury vapour light source with a 500/20-nm excitation filter, while fluorescence emission was detected with a 535/30-nm emission filter. Fluorescence images were required with automated routines written in MetaMorph software (Molecular Devices) and analysed with Igor Pro (Wavemetrics).
# [2] = Small unilamellar vesicle-binding assay; format: physicochemical
# Protocol: After the film rinsed with pentane was lyophilized at −40 °C overnight, the lipid was suspended with a buffer (10 mM HEPES, 50 mM KCl at pH 7.0). POPE (1-palmitoyl-2-oleoyl-phosphatidylethanolamine, 10 mg ml^−1) and POPG (1-palmitoyl-2-oleoylphosphatidyl-Dl-glycerol, 10 mg ml^−1) were mixed in a 3:1 ratio for POPE/POPG vesicle preparation. In total, 150 mM KCl was used instead of 50 mM KCl. The suspended lipid was then sonicated (in ice water) until the solution became transparent. RhTx was mixed with 10 mg ml^−1 (total concentration) small unilamellar vesicle (SUVs). The mixture was incubated for 40 min at room temperature before ultracentrifugation. Toxin–vesicle mixtures were centrifuged at 304,000g for 150 min. The residual toxins in the supernatant were evaluated by RP-HPLC using a linear gradient of acetonitrile containing 0.1% v/v trifluoroacetic acid.
# [3] = target: T1, mTRPV1 (Mus musculus, UniProt Q704Y3); assay: Inside-out patch, toxin applied from the intracellular side; format: cell-based; conditions: inside-out patch containing mTRPV1, holding 0 mV, testing +80 mV
# T1 construct: expressed in transfected cells; host or cells: HEK-293T
# Protocol: (§2) As described in details in a previous report, macroscopic currents (in whole-cell, inside-out or outside-out configuration) as well as single-channel currents were recorded using a HEKA EPC10 amplifier with the PatchMaster software (HEKA). Both pipette solution and bath solution contained 130 mM NaCl, 3 mM HEPES and 0.2 mM EDTA (pH 7.2). All recordings were performed at room temperature unless otherwise stated. A holding potential of 0 mV was used from which a testing pulse to +80 mV was applied. Statistical difference was determined using the Student’s t-test, and indicated by ** when reaching the significance level P<0.001.
# [4] = system: TRPV1; assay: Infrared laser-induced heat activation, inside-out patch; format: cell-based
# Protocol: The experimental set-up for rapidly heating cell membrane containing expressed TRPV1 channels was described in a previous report. Electrophysiological recordings were done in the inside-out mode. Toxin was added in the pipette solution. Laser light of 1,443 nm was generated by a laser diode (Fitel) driven by a controller (Thorlabs). The maximal optic output power of the laser was 250 mW. The laser light was transmitted to the voltage-clamped cell membrane through a single-mode optical fibre (125 μm outer diameter, 10 μm light-conducting core diameter), with the patch pipette tip placed in front of the centre of the optical fibre. Light energy was absorbed by water and converted to heat to drive channel activation. To calibrate the laser heating system, the relationship between laser driving power and temperature was tabulated as previously described. Briefly, a glass pipette was filled with a solution distinct from the bath solution and was centred at the end of the optical fibre. The laser driving power was adjusted to produce junction potential values matching those measured in the same solutions at different temperatures.
# [5] = system: TRPV1; assay: Cooling of RhTx- or capsaicin-induced channel activation; format: cell-based; conditions: RhTx at 1 μM
# Protocol: as §2
# [6] = system: TRPV1; assay: RhTx-induced desensitization of TRPV1 heat activation, inside-out patch; format: cell-based; conditions: 10 μM RhTx in patch pipette solution, inside-out patches, heating to 55 °C, n=8
# Excerpt: For recording the RhTx-induced desensitization of TRPV1, temperature control was achieved by perfusion of preheated or room-temperature bathing solution. Hot bathing solution were maintained at expected temperature with an SH-27B in-line solution heater controlled by a TC-324C temperature controller (Warner). A solution exchanger RSC-200 with eight separate tubes to deliver room-temperature bathing solution and capsaicin. A TA-29 miniature bead thermistor (Harvard Apparatus) was placed right next to the pipette to ensure accurate monitoring of local temperature.
# [7] = system: WT mice; assay: Colonic temperature after intraperitoneal injection; format: in vivo, mouse; conditions: WT mice n=6, intraperitoneal, 10 μmol kg^−1
# Protocol: (§3) In vivo effects of RhTx on WT mice or Trpv1^−/− mice were examined according to protocols described previously. For the paw-licking assay, pain was induced in mice by intraplantar injection of 0.1% formalin, capsaicin (1 μmol per paw) or RhTx (1 μmol per paw). Each of the testing materials was dissolved in 100 μl saline. Control mice received the same volume of saline. Injected mice were placed individually into open polyvinyl cages (20 × 40 × 15 cm). Time spent licking the injected paw was recorded by a digital video camera during the following 40 min. For recording colonic temperature from WT or Trpv1^−/− mice, mice equipped with a copper-constantan thermocouple were individually placed in open polyvinyl cages. A data logger was connected to the thermocouple. Mice were injected intraperitoneally with 100 μl saline containing capsaicin or RhTx. The dose of capsaicin or RhTx was 10 μmol kg^−1 for these experiments. Mice in the control group received the same volume of saline.
# [8] = system: Trpv1−/− mice; assay: Colonic temperature in TRPV1 knockout mice; format: in vivo, mouse; conditions: Trpv1−/− mice n=3, intraperitoneal, 10 μmol kg^−1
# Protocol: as §3
# [9] = system: mTRPV1 point mutants at D602, Y632, T634 and L461; assay: Calcium imaging of mTRPV1 point mutants; format: cell-based, mouse; conditions: glycine or alanine mutation; 10 μM RhTx, 10 μM capsaicin
# Excerpt: TRPV1 and TRPV3 chimeras used in this study were generated by the overlapping extension method[54] and confirmed by DNA sequencing, as described previously. Briefly, to generate V1/3S, the primer pairs (5′-[…]-3′and 5′-[…]-3′) were used. To generate other TRPV1/TRPV3 chimeras, the enzyme cutting sites by MluI were made by the primer pair (5′-[…]-3′ and 5′-[…]-3′) for TRPV1 and the primer pair (5′-[…]-3′ and 5′-[…]-3′) for TRPV3. The enzyme cutting sites by PvuI were made by the primer pair (5′-[…]-3′ and 5′-[…]-3′) for TRPV1 and the primer pair (5′-[…]-3′ and 5′-[…]-3′) for TRPV3. The enzyme cutting sites by BsiWI were made by the primer pair (5′-[…]-3′ and 5′-[…]-3′) for TRPV1 and the primer pair (5′-[…]-3′ and 5′-[…]-3′) for TRPV3. […]
# as §1, with “DRG neurons or HEK-293T cells were loaded with Fluo-4 AM in 2 mM Ca^2+ Ringer’s solution (140 mM NaCl, 5 mM KCl, 2 mM MgCl2, 10 mM glucose, 2 mM CaCl2 and 10 mM HEPES, pH 7.4).” left out
# [10] = system: mTRPV1 point mutants at D602, Y632, T634 and L461; assay: Whole-cell current of mTRPV1 point mutants; format: cell-based, mouse; conditions: glycine or alanine mutation, both at 10 μM, +80 mV
# Excerpt: TRPV1 and TRPV3 chimeras used in this study were generated by the overlapping extension method[54] and confirmed by DNA sequencing, as described previously. Briefly, to generate V1/3S, the primer pairs (5′-[…]-3′and 5′-[…]-3′) were used. To generate other TRPV1/TRPV3 chimeras, the enzyme cutting sites by MluI were made by the primer pair (5′-[…]-3′ and 5′-[…]-3′) for TRPV1 and the primer pair (5′-[…]-3′ and 5′-[…]-3′) for TRPV3. The enzyme cutting sites by PvuI were made by the primer pair (5′-[…]-3′ and 5′-[…]-3′) for TRPV1 and the primer pair (5′-[…]-3′ and 5′-[…]-3′) for TRPV3. The enzyme cutting sites by BsiWI were made by the primer pair (5′-[…]-3′ and 5′-[…]-3′) for TRPV1 and the primer pair (5′-[…]-3′ and 5′-[…]-3′) for TRPV3. V1/3M were generated by enzyme cut and paste between MluI and PvuI sites, while V1/3L were generated by enzyme cut and paste between MluI and BsiWI sites. V1_S1S2_1, V1_S1S2_3 and V1_S1S2_3 were generated as previously reported. […]
# As described in details in a previous report, macroscopic currents (in whole-cell, inside-out or outside-out configuration) as well as single-channel currents were recorded using a HEKA EPC10 amplifier with the PatchMaster software (HEKA). […] Statistical difference was determined using the Student’s t-test, and indicated by ** when reaching the significance level P<0.001.
# T1 sequence (Q704Y3 whole entry): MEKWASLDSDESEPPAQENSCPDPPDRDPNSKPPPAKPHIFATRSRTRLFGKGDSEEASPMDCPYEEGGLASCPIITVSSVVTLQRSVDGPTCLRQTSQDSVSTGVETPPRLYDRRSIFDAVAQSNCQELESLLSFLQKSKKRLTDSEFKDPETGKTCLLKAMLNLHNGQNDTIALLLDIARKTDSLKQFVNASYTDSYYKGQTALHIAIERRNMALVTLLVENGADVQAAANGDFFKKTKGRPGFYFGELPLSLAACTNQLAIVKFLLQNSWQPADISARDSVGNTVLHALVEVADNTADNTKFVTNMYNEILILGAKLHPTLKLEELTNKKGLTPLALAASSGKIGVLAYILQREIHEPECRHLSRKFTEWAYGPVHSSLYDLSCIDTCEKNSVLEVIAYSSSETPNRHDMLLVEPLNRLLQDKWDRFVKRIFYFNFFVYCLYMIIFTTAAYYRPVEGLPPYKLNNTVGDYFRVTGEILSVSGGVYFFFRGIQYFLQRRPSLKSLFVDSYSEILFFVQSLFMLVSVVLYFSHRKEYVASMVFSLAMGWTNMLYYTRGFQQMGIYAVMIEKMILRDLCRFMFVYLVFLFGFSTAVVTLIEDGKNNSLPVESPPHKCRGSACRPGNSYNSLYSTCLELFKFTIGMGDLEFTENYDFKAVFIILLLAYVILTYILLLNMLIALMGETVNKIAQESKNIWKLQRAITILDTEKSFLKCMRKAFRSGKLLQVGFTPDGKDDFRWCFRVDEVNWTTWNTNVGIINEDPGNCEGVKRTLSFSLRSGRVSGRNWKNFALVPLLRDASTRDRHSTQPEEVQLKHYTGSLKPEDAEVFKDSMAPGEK
compound,measurement,setting,value
"CC[C@H](C)[C@H](NC(=O)[C@@H]1CSSC[C@@H]2NC(=O)[C@H]([C@@H](C)O)NC(=O)[C@H](C(C)C)NC(=O)CNC(=O)[C@H](CC(N)=O)NC(=O)[C@@H](NC(=O)[C@@H]3CCCN3C(=O)[C@H](CC(N)=O)NC(=O)[C@H](CC(N)=O)NC(=O)[C@@H](N)CC(C)C)CSSC[C@H](NC(=O)[C@H](CCCNC(=N)N)NC(=O)[C@H](Cc3ccc(O)cc3)NC(=O)CNC(=O)[C@H](CO)NC(=O)[C@@H]3CCCN3C2=O)C(=O)N[C@@H](CO)C(=O)N[C@@H]([C@@H](C)CC)C(=O)N[C@@H](C(C)C)C(=O)N[C@@H](CC(=O)O)C(=O)N[C@@H](CCCCN)C(=O)N[C@@H](CCC(N)=O)C(=O)N1)C(=O)N[C@@H](CCCCN)C(=O)N[C@@H](CCCCN)C(=O)N[C@@H](CCC(=O)O)C(=O)O [RhTx] (H-LNNPCNGVTCPSGYRCSIVDKQCIKKE-OH; disulfide 5-16, 10-23; N-terminus and C-terminus assumed)",intracellular calcium increase in capsaicin-responsive DRG neurons,[1],nearly as strong as capsaicin
same,RP-HPLC chromatograph before versus after treatment with POPC,"[2]; 0.1 mg RhTx, POPC SUVs 10 mg/ml, 10 mM HEPES, 50 mM KCl, pH 7.0, 40 min room temperature, supernatant RP-HPLC",No difference
same,RP-HPLC chromatograph before versus after treatment with POPE/POPG,"[2]; 0.1 mg RhTx, POPE/POPG 3:1 SUVs 10 mg/ml, 150 mM KCl, 40 min room temperature, supernatant RP-HPLC",No difference
same,incorporation into the lipid membrane (initial partition experiments),"[2]; SUVs 10 mg/ml, 40 min at room temperature, ultracentrifugation 304,000g 150 min, supernatant by RP-HPLC",does not incorporate into the lipid membrane
same,activity when applied from the intracellular side,[3],completely ineffective; also recorded: no activity
same,"effect on infrared laser-induced heat activation, 50 nM","[4]; RhTx at 50 nM in pipette, inside-out patch, +80 mV",substantially potentiated
same,lowering of the activation threshold temperature,[4]; RhTx at 100 nM,6 °C
same,"effect on infrared laser-induced heat activation, 100 nM","[4]; RhTx at 100 nM in pipette, inside-out patch, +80 mV",substantially potentiated
same,effect of lowering the experimental temperature on agonist-induced channel activation,[5],completely prohibited
same,TRPV1 heat response after extended incubation with toxin,[6],selectively desensitized TRPV1 heat activation but not capsaicin activation; also recorded: incapable to respond to heat
same,core (colonic) temperature,[7],rapid drop in core temperature
same,core (colonic) temperature in knockout mice,[8],absent
same,agonist-induced intracellular calcium increase in point mutants versus WT channel,[9],markedly reduced
same,agonist-induced current in point mutants versus WT channel,[10],markedly reduced
